Measured values reported in patent publication US20230183219A1, “CONDENSED SUBSTITUTED HYDROPYRROLES AS ANTAGONISTS OF THE MUSCARINIC ACETYLCHOLINE RECEPTOR M4” (Vanderbilt University, priority 2020, published 2023).

Target: T1, Human M4 (Homo sapiens, UniProt P08173)
T1 construct: Human or rat M4 cDNA, along with the chimeric G protein Gqi5, were transfected into Chinese hamster ovary (CHO-K1) cells; expressed in transfected cells; host or cells: CHO-K1 (Chinese hamster ovary, ATCC), stably co-expressing Gqi5
T1 sequence (P08173 1-479): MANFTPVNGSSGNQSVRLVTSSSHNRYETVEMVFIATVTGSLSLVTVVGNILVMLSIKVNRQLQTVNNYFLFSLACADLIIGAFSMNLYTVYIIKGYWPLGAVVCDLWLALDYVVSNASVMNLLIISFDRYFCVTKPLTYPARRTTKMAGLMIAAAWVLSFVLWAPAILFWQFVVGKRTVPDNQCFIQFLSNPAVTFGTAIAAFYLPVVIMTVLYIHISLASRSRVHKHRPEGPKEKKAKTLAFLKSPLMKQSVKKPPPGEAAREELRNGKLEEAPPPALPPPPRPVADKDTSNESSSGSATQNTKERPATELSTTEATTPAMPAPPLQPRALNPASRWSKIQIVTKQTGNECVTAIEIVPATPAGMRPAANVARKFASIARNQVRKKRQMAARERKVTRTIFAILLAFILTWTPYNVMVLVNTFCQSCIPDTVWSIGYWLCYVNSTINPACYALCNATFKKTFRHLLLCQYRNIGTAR
Test: mAChR M4 cell-based functional assay (calcium flux, decrease of EC80 acetylcholine response)
Conditions: for remaining activity at 30 µM / Human M4 Emin: % ACh maximum at 30 μM; for remaining activity at 30 µM: read-out: Human M4 Emin; for IC50: M4/Gqi5/CHO-K1 cells, decrease of response to EC80 acetylcholine
How it was run: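 CHO-K1 cells stably co-expressing M4 and chimeric Gqi5, loaded with Fluo-4 AM; calcium flux read on FDSS. Compound added at 2 s, EC20 acetylcholine at 143 s, EC80 acetylcholine at 268 s. IC50 from concentration-dependent decrease of the EC80 response, four-parameter logistic fit; 10-point 1:3 titrations.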

SMILES | remaining activity at 30 µM [%] | IC50 [nM] | Human M4 Emin [%]
COc1cc(F)c(-c2cc(C(F)(F)F)c(N[C@H]3C[C@@H]4CN(CC5CCOCC5)C[C@@H]4C3)nn2)cc1F [Example 78, (3aR,5s,6aS)-N-(6-(2,5-difluoro-4-methoxyphenyl)-4-(trifluoromethyl)pyridazin-3-yl)-2-((tetrahydro-2H-pyran-4-yl)methyl)octahydro-cyclopenta[c]pyrrol-5-amine] | 3 | 172 | –
Fc1cccc(-c2cc(C(F)(F)F)c(N[C@H]3C[C@@H]4CN(CC5CCOCC5)C[C@@H]4C3)nn2)c1F [Example 81, (3aR,5s,6aS)-N-(6-(2,3-difluorophenyl)-4-(trifluoro-methyl)pyridazin-3-yl)-2-((tetrahydro-2H-pyran-4-yl)methyl)octahydro-cyclopenta[c]pyrrol-5-amine] | 3 | 178 | –
CCOc1ccc(-c2cc(C(F)(F)F)c(N[C@H]3C[C@@H]4CN(CC5CCOCC5)C[C@@H]4C3)nn2)c(C)c1 [Example 84, (3aR,5s,6aS)-N-(6-(4-ethoxy-2-methylphenyl)-4-(trifluoromethyl)pyridazin-3-yl)-2-((tetrahydro-2H-pyran-4-yl)methyl)octahydro-cyclopenta[c]pyrrol-5-amine] | 3 | 73.7 | –
Cn1cc2cc(-c3cc(C(F)(F)F)c(N[C@H]4C[C@@H]5CN(C[C@H]6CC7CCC6O7)C[C@@H]5C4)nn3)ccc2n1 (stereo partly drawn) [Example 27, (3aR,5s,6aS)-2-(((2R)-7-oxabicyclo[2.2.1]heptan-2-yl)methyl)-N-(6-(2-methyl-2H-indazol-5-yl)-4-(trifluoromethyl)pyridazin-3-yl)octahydro-cyclopenta[c]pyrrol-5-amine] | 3 | 74.3 | –
FC(F)(F)c1cc(-c2cccnc2)nnc1N[C@H]1C[C@@H]2CN(CC3CCOCC3)C[C@@H]2C1 [Example 68, (3aR,5s,6aS)-N-(6-(pyridin-3-yl)-4-(trifluoro-methyl)pyridazin-3-yl)-2-((tetrahydro-2H-pyran-4-yl)methyl)octahydro-cyclopenta[c]pyrrol-5-amine] | 3 | 161 | –
Cc1ccc(F)cc1-c1cc(C(F)(F)F)c(O[C@H]2C[C@@H]3CN(CC4CCOCC4)C[C@@H]3C2)nn1 [Example 5, (3aR,5s,6aS)-5-((6-(5-fluoro-2-methylphenyl)-4-(trifluoromethyl)pyridazin-3-yl)oxy)-2-((tetrahydro-2H-pyran-4-yl)methyl)octahydrocyclopenta[c]pyrrole] | – | 1240 | 7
Fc1cc(OC(F)F)ccc1-c1cc(C(F)(F)F)c(N[C@H]2C[C@@H]3CN(CC4CCOCC4)C[C@@H]3C2)nn1 [Example 83, (3aR,5s,6aS)-N-(6-(2-fluoro-4-(difluoromethoxy)phenyl)-4-(trifluoromethyl)pyridazin-3-yl)-2-((tetrahydro-2H-pyran-4-yl)methyl)octahydro-cyclopenta[c]pyrrol-5-amine] | 3 | 408 | –
Cc1ccc(F)cc1-c1cc(C(F)(F)F)c(N[C@H]2C[C@@H]3CN(Cc4ccccn4)C[C@@H]3C2)nn1 [Example 103, (3aR,5s,6aS)-N-(6-(5-fluoro-2-methylphenyl)-4-(trifluoromethyl)pyridazin-3-yl)-2-(pyridin-2-ylmethyl)octahydro-cyclopenta[c]pyrrol-5-amine] | 3 | 95.7 | –
Cc1ccc(F)cc1-c1cc(C#N)c(N[C@H]2C[C@@H]3CN(C[C@@H]4CCOC4)C[C@@H]3C2)nn1 [Example 151, 6-(5-fluoro-2-methylphenyl)-3-(((3aR,5s,6aS)-2-(((S)-tetrahydrofuran-3-yl)methyl)octahydro-cyclopenta[c]pyrrol-5-yl)amino)pyridazine-4-carbonitrile] | 7 | 105 | –
Cc1ccc(F)cc1-c1cc(C(F)(F)F)c(O[C@H]2C[C@@H]3CN(CC4CCOCC4)C[C@@H]3C2)nn1 [Example 132, (3aR,5s,6aS)-5-((6-(5-fluoro-2-methylphenyl)-4-(trifluoromethyl)pyridazin-3-yl)oxy)-2-((tetrahydro-2H-pyran-4-yl)methyl)octahydro-cyclopenta[c]pyrrole] | 3 | 592 | –
[2H]C([2H])([2H])N(c1cc(C(F)(F)F)c(-c2ccc3nn(C)cc3c2C)nn1)[C@H]1C[C@@H]2CN(CC3CCOCC3)C[C@@H]2C1 [Example 7, (3aR,5s,6aS)—N-(6-(2,4-dimethyl-2H-indazol-5-yl)-5-(trifluoromethyl)pyridazin-3-yl)-N-(methyl-d3)-2-((tetrahydro-2H-pyran-4-yl)methyl)octahydrocyclopenta [c]pyrrol-5-amine] | – | – | 15
[2H]C([2H])(C1CCOCC1)N1C[C@H]2C[C@H](Nc3nnc(-c4ccc5c(c4)ncn5C)cc3C(F)(F)F)C[C@H]2C1 [Example 111, (3aR,5s,6aS)-N-(6-(1-methyl-1H-benzo[d]imidazol-5-yl)-4-(trifluoro-methyl)pyridazin-3-yl)-2-((tetrahydro-2H-pyran-4-yl)methyl-d2)octahydro-cyclopenta[c]pyrrol-5-amine] | 3 | 136 | –
[2H]C([2H])(C1CCOCC1)N1C[C@H]2C[C@H](Nc3nnc(-c4ccc(C)cc4C)cc3C(F)(F)F)C[C@H]2C1 [Example 126, (3aR,5s,6aS)-N-(6-(2,4-dimethyl-phenyl)-4-(trifluoro-methyl)pyridazin-3-yl)-2-((tetrahydro-2H-pyran-4-yl)methyl-d2)octahydro-cyclopenta[c]pyrrol-5-amine] | 3 | 94.2 | –

Continued by falling IC50, values first:

remaining activity at 30 µM [%] | IC50 [nM] | SMILES | Human M4 Emin [%]
3 | 67.7 | Cc1ccc(-c2cc(C(F)(F)F)c(N[C@H]3C[C@@H]4CN(CC5CCOCC5)C[C@@H]4C3)nn2)c(C)c1 [Example 59, (3aR,5s,6aS)-N-(6-(2,4-dimethylphenyl)-4-(trifluoromethyl)pyridazin-3-yl)-2-((tetrahydro-2H-pyran-4-yl)methyl)octahydro-cyclopenta[c]pyrrol-5-amine] | –
2 | 54.7 | [2H]C([2H])(C1CCOCC1)N1C[C@H]2C[C@H](Nc3nnc(-c4cc(F)ccc4C(F)(F)F)cc3C(F)(F)F)C[C@H]2C1 [Example 99, (3aR,5s,6aS)-N-(6-(5-fluoro-2-(trifluoromethyl)phenyl)-4-(trifluoromethyl)pyridazin-3-yl)-2-((tetrahydro-2H-pyran-4-yl)methyl-d2)octahydro-cyclopenta[c]pyrrol-5-amine] | –
6 | 32.9 | Cn1cc2cc(-c3cc(C(F)(F)F)c(N[C@H]4C[C@@H]5CN(C[C@H]6COCCO6)C[C@@H]5C4)nn3)ccc2n1 [Example 34, (3aR,5s,6aS)-2-(((S)-1,4-dioxan-2-yl)methyl)-N-(6-(2-methyl-2H-indazol-5-yl)-4-(trifluoromethyl)pyridazin-3-yl)octahydro-cyclopenta[c]pyrrol-5-amine] | –
14 | 15.7 | Cn1cc2cc(-c3cc(C#N)c(N[C@H]4C[C@@H]5CN(CC6CCCOC6)C[C@@H]5C4)nn3)ccc2n1 (single isomer, unassigned) [Example 158] | –
2 | 11.1 | Cc1ccc(F)cc1-c1cc(C(F)(F)F)c(N[C@H]2C[C@@H]3CN(C[C@H]4CC5CCC4O5)C[C@@H]3C2)nn1 (stereo partly drawn) [Example 25, (3aR,5s,6aS)-2-(((2R)-7-oxabicyclo[2.2.1]heptan-2-yl)methyl)-N-(6-(5-fluoro-2-methylphenyl)-4-(trifluoromethyl)pyridazin-3-yl)octahydro-cyclopenta[c]pyrrol-5-amine] | –
4 | 9.5 | Cc1ccc(F)cc1-c1cc(C(F)(F)F)c(N[C@H]2C[C@@H]3CN(CC4CCCOC4)C[C@@H]3C2)nn1 (stereo partly drawn) [Example 28, (3aR,5s,6aS)-N-(6-(5-fluoro-2-methylphenyl)-4-(trifluoromethyl)pyridazin-3-yl)-2-((tetrahydro-2H-pyran-3-yl)methyl)octahydro-cyclopenta[c]pyrrol-5-amine] | –
3 | 9.2 | [2H]C([2H])(C1CCOCC1)N1C[C@H]2C[C@H](Nc3nnc(-c4cc(F)ccc4Cl)cc3C(F)(F)F)C[C@H]2C1 [Example 16, (3aR,5s,6aS)-N-(6-(2-chloro-5-fluorophenyl)-4-(trifluoro-methyl)pyridazin-3-yl)-2-((tetrahydro-2H-pyran-4-yl)methyl-d2)octahydro-cyclopenta[c]pyrrol-5-amine] | –
2 | 8.3 | FC1(F)CCN(c2cc(C(F)(F)F)c(N[C@H]3C[C@@H]4CN(CC5CCOCC5)C[C@@H]4C3)nn2)C1 [Example 141, (3aR,5s,6aS)-N-(6-(3,3-difluoropyrrolidin-1-yl)-4-(trifluoromethyl)pyridazin-3-yl)-2-((tetrahydro-2H-pyran-4-yl)methyl)octahydro-cyclopenta[c]pyrrol-5-amine] | –
